Experimental data taken from ChEMBL document CHEMBL5523743, “Identification of Psychoplastogenic Tropanes Lacking Muscarinic Activity” (J Med Chem, 2024).
Calls of active or inactive are those of the source. The calls are words filed in the database; no cut-off is given here.

What was measured:
Neuron [1] = experiment: Neuroplasticity effect in Wistar rat brain cortical neuron assessed as increase in neurite outgrowth at 0.25 to 10 uM after 72 hrs; assay type: functional, cell-based; conditions: dose 0.25-10 µM
[2] = target: T1, Muscarinic acetylcholine receptor M1 (Homo sapiens) (UniProt P11229); experiment: Antagonist activity at recombinant human M1 receptor expressed in CHO-K1 cells incubated for 15 mins in presence of acetylcholine by aequorin assay; assay type: functional, cell-based; conditions: filed as antagonist
T1 sequence (whole entry): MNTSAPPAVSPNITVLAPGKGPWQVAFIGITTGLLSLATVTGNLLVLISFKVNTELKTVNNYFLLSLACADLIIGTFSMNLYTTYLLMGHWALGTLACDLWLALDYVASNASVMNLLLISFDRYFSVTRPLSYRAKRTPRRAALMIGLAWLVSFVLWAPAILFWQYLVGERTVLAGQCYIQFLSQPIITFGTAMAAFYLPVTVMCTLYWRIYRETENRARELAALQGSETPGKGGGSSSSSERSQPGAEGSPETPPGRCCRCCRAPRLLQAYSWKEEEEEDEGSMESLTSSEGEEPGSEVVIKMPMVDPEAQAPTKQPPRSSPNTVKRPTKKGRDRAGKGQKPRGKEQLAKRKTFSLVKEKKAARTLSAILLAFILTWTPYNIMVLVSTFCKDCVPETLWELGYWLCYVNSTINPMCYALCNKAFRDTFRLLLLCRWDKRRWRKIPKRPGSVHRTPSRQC

Neuron [3] = experiment: Cytotoxicity against Wistar rat brain cortical neurons assessed as neurite restriction; assay type: toxicity, cell-based; conditions: dose 0.25-10 µM
[4] = target: T2, Muscarinic acetylcholine receptor M2 (Homo sapiens) (UniProt P08172); experiment: Agonist activity at M2 receptor (unknown origin) by GTPgamma[35S] based Topcount scintillation counting method; assay type: functional; conditions: filed as agonist
T2 sequence (whole entry): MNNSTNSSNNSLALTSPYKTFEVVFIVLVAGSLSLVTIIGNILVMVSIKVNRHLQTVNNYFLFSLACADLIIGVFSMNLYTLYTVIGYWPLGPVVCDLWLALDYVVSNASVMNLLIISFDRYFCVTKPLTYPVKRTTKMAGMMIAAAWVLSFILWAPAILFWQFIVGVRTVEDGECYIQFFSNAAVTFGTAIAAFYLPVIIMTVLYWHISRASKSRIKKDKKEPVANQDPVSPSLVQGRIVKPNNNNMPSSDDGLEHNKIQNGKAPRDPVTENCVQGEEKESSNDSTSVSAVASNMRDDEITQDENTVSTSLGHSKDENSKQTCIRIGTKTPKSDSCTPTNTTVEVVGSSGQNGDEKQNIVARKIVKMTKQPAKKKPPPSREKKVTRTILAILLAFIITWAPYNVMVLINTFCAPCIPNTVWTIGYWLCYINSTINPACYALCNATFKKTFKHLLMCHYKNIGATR

[5] = target: T1, Muscarinic acetylcholine receptor M1 (Homo sapiens); experiment: Agonist activity at recombinant human M1 receptor expressed in CHO-K1 cells incubated for 15 mins by aequorin assay; assay type: functional, cell-based; conditions: filed as agonist
[6] = target: T3, 5-hydroxytryptamine receptor 2C (Homo sapiens) (UniProt P28335); experiment: Agonist activity at recombinant human 5HT2CR expressed in CHO-K1 cells incubated for 60 mins by HTRF method; assay type: functional, cell-based; conditions: filed as agonist
T3 sequence (whole entry): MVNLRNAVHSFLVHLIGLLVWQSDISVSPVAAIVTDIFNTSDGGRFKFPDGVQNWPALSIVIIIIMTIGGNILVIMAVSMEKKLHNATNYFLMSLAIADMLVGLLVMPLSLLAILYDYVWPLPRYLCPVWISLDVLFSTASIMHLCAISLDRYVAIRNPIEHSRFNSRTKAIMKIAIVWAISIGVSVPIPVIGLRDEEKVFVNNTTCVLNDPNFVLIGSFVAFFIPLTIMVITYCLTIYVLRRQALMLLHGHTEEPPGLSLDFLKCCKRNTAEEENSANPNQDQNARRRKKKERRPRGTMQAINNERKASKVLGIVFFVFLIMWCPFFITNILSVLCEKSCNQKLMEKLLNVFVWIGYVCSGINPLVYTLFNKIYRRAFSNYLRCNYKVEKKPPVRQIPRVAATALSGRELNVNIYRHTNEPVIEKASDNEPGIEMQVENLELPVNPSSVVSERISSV

[7] = target: T4, Muscarinic acetylcholine receptor M4 (Homo sapiens) (UniProt P08173); experiment: Agonist activity at M4 receptor (unknown origin) by GTPgamma[35S] based Topcount scintillation counting method; assay type: functional; conditions: filed as agonist
T4 sequence (whole entry): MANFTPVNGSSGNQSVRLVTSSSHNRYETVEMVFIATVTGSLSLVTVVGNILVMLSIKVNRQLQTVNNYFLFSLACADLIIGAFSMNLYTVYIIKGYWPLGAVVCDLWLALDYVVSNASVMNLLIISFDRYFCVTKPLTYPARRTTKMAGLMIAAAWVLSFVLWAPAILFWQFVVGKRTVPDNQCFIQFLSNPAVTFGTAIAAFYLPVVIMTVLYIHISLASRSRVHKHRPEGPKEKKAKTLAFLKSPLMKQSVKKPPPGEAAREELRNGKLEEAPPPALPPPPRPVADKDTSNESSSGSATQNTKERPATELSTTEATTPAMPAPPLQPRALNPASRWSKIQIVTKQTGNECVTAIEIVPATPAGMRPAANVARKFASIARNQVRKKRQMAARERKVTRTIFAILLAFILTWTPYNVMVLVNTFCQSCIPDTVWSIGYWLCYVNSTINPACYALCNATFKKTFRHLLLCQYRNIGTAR

[8] = target: Muscarinic acetylcholine receptor M3 (Homo sapiens) (UniProt P20309); experiment: Agonist activity at recombinant human M3 receptor expressed in CHO-K1 cells incubated for 15 mins by aequorin assay; assay type: functional, cell-based; conditions: filed as agonist
[9] = target: 5-hydroxytryptamine receptor 2A (Homo sapiens) (UniProt P28223); experiment: Agonist activity at recombinant human 5HT2AR expressed in CHO-K1 cells incubated for 60 mins by HTRF method; assay type: functional, cell-based; conditions: filed as agonist
[10] = target: T3, 5-hydroxytryptamine receptor 2C (Homo sapiens); experiment: Displacement of [3H]-DOI from 5HT2CR (unknown origin) by Topcount scintillation counting method; conditions: filed as agonist
[11] = target: 5-hydroxytryptamine receptor 2A (Homo sapiens) (UniProt P28223); experiment: Displacement of [3H]-DOI from 5HT2AR (unknown origin) by Topcount scintillation counting method; conditions: filed as agonist
[12] = target: T5, Muscarinic acetylcholine receptor M5 (Homo sapiens) (UniProt P08912); experiment: Agonist activity at recombinant human M5 receptor expressed in CHO-K1 cells incubated for 15 mins by aequorin assay; assay type: functional, cell-based; conditions: filed as agonist
T5 sequence (whole entry): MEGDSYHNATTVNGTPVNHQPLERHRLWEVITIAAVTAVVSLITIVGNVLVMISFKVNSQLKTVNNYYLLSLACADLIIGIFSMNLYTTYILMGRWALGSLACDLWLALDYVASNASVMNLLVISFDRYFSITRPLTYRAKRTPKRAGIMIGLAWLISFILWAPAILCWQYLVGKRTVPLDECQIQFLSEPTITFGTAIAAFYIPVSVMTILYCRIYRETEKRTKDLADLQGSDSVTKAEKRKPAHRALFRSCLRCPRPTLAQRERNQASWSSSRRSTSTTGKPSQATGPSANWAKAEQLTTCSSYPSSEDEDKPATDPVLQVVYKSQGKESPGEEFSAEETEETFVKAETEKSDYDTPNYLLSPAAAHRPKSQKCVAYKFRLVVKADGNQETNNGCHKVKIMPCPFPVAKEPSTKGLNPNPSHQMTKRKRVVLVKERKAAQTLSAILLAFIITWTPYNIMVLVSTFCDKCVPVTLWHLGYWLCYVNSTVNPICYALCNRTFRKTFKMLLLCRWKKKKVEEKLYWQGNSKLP

Neuron [13] = experiment: Cytotoxicity against Wistar rat brain cortical neurons assessed as decrease in average number of neurites per neuron at 0.25 to 10 uM; assay type: toxicity, cell-based; conditions: dose 0.25-10 µM

Sequence of 5-hydroxytryptamine receptor 2A (Homo sapiens) (P28223 whole entry): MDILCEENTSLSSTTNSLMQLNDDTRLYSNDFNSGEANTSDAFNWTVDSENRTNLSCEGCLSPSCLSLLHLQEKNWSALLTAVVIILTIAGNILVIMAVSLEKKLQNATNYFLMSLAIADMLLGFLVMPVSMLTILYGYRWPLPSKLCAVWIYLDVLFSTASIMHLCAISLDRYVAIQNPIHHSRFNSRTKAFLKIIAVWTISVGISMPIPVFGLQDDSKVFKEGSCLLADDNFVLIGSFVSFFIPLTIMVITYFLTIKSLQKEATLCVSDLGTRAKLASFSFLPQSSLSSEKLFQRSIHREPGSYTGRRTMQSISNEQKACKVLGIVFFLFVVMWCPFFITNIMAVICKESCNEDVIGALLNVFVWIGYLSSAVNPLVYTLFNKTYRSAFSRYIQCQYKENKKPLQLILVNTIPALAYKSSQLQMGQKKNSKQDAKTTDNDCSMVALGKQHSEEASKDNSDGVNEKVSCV
Sequence of Muscarinic acetylcholine receptor M3 (Homo sapiens) (P20309 whole entry, looked up): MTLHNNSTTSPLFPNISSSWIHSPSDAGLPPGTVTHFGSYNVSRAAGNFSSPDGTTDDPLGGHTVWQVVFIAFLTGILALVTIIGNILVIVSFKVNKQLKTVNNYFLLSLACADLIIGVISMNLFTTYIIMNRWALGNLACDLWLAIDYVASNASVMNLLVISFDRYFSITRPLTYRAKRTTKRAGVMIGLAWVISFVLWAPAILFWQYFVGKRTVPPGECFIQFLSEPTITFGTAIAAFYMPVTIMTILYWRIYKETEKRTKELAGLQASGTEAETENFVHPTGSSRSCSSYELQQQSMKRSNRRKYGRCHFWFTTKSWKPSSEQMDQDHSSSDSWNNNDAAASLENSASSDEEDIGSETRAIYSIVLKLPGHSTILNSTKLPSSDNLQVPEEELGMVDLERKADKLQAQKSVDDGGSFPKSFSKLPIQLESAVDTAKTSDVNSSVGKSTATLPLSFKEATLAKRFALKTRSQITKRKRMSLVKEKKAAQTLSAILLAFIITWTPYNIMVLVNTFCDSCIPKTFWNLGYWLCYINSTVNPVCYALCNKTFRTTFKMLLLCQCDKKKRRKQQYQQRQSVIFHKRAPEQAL

COc1ccccc1[C@H]1C[C@@H]2CCC[C@H]1N2C
Activity (Neuron [1]): inactive

CN1[C@H]2CCC[C@@H]1[C@@H](c1cccc(F)c1)C2
Activity [2]: Active
Activity (Neuron [1]): Active

CN1[C@H]2C[C@@H](OC(=O)c3ccccc3)C[C@@H]1[C@@H](c1ccccc1)C2
Activity [2]: Active
Activity (Neuron [1]): Active

O=C1C[C@H]2C[C@H](O)[C@@H](C1)N2CCc1c[nH]c2ccccc12
Activity (Neuron [1]): Active

CN1[C@@H]2CCC[C@H]1[C@H]1[C@@H]2N1c1cccc2[nH]ccc12
Activity (Neuron [3]): Dose-Dependent Effect
Activity (Neuron [1]): inactive

COc1ccccc1CCN1[C@@H]2CCC[C@H]1CC2
Activity [4]: Active
Activity [5]: Active
Activity [6]: Active
Activity [7]: Active
Activity [8]: Active
Activity [9]: Active
Activity [10]: Active
Activity [11]: Active
Activity [12]: Active

CN1[C@H]2C[C@H](O)C[C@@H]1[C@@H](c1ccccc1)C2
Activity (Neuron [1]): inactive

Fc1ccc(CCN2[C@@H]3CCC[C@H]2CC3)cc1
Activity (Neuron [1]): Active

CN1[C@@H]2CCC[C@H]1[C@H]1[C@@H]2N1c1ccccc1
Activity (Neuron [1]): inactive

c1ccc(CCN2[C@@H]3CCC[C@H]2CC3)cc1
Activity (Neuron [1]): Active

CN1[C@H]2CCC[C@@H]1[C@@H](c1ccccc1F)C2
Activity (Neuron [1]): inactive
Activity (Neuron [13]): Toxic

CN1[C@H]2C[C@@H](O)C[C@@H]1[C@@H](c1ccccc1)C2
Activity (Neuron [1]): inactive

CN1[C@@H]2CC[C@H]1C[C@H](OC(=O)c1ccccc1)C2
Activity (Neuron [1]): inactive
